≈ marks a conversion by molar mass, not a printed value. Like-named read-outs stand apart in the source and are kept apart here.
Legend:
[1] = system: herpes simplex virus 1 (HSV-1); experiment: microbe, parasite or virus in culture; assay type: cell-based, strain E-377; parameters: SI50: unit not given beside the values; conditions: for EC50: Human alphaherpesvirus 1, HFF
[2] = system: herpes simplex virus 2 (HSV-2); experiment: Antiviral test against HSV-2 in HFF cells (crystal violet); assay type: cell-based, strain MS; parameters: SI50: unit not given beside the values
[3] = Toxicity (CC50) in the HSV-2 test, HFF cells (crystal violet); conditions: human
[4] = Toxicity (CC50) in the HSV-1 test, HFF cells (crystal violet); conditions: human
in vitro [5] = conditions: dog, MDCK cells
influenza A H1N1 virus [6] = experiment: Antiviral test against influenza A H1N1 in MDCK cells, neutral red (cytopathic effect); assay type: cell-based, strain California 07/2009; parameters: SI50: unit not given beside the values; conditions: for EC50: Influenza A virus, H1N1, MDCK
in vitro [7] = conditions: human
in vitro [8] = conditions: dog, MDCK cells; remark: listed apart in the source
influenza A H1N1 virus [9] = experiment: Antiviral test against influenza A H1N1 in MDCK cells, visual (cytopathic effect); assay type: cell-based, strain California 07/2009; parameters: SI50: unit not given beside the values; conditions: for EC50: Influenza A virus, H1N1, MDCK
in vitro [10] = conditions: human; remark: listed apart in the source
hepatitis B virus (HBV) = experiment: Antiviral test against HBV in HepG 2.2.2.15 cells; assay type: cell-based, strain ayw1; parameters: SI50: unit not given beside the values; conditions: for SI50: HBV, HepG 2.2.2.15 cells
vaccinia virus (VV) = experiment: microbe, parasite or virus in culture; assay type: cell-based, strain Copenhagen; conditions: Orthopoxvirus vaccinia, HFF
[11] = Hepatitis B virus, HepG2 2.2.15

Structure (SMILES)	CC50 (in vitro [5])	melting point	EC50 (influenza A H1N1 virus [6])	CC50 (in vitro [8])	EC50 (influenza A H1N1 virus [9])	CC50 (in vitro [10])	SI50 (hepatitis B virus (HBV))	EC50 (hepatitis B virus (HBV); [11])	other results
Nc1nc2c(ncn2COCCO)c(=O)[nH]1 [acyclovir]									SI50 [1]: > 30; EC50 [1]: 3.29 µM; SI50 [2]: > 27; EC50 ([2]; Human alphaherpesvirus 2, HFF): 3.7 µM; CC50 [3]: > 100 µM; CC50 [4]: > 100 µM
O=C(NC1C=CC(O)C1)c1cccnc1 (stereo not drawn) [Compound 13b, N-(4-Hydroxycyclopent-2-enyl)nicotinamide]	> 100 µg/mL	125 to 127 °C	> 100 µg/mL	> 100 µg/mL	> 100 µg/mL				CC50 (in vitro [7]): > 300 µM
O=C(NC1C=CC(O)C1)c1ccncc1 (stereo not drawn) [Compound 13c, N-(4-Hydroxycyclopent-2-enyl)isonicotinamide]	> 100 µg/mL	170 to 175 °C	> 100 µg/mL	> 100 µg/mL	> 100 µg/mL				CC50 (in vitro [7]): > 300 µM
NC(=O)c1ncn([C@@H]2O[C@H](CO)[C@@H](O)[C@H]2O)n1 [Ribavirin, reference compound]			3.1 µg/mL (≈ 12.7 µM)		3.2 µg/mL (≈ 13.1 µM)				SI50 (influenza A H1N1 virus [6]): 14; SI50 (influenza A H1N1 virus [9]): >31
O=C(NC1C=CC(O)CC1)c1ccccn1 (stereo not drawn) [Compound 14a, N-(4-Hydroxycyclohex-2-enyl)picolinamide]	> 100 µg/mL		> 100 µg/mL	> 100 µg/mL	> 100 µg/mL	> 20 µM	1	> 20 µM	
Nc1ccn(C[C@@H](CO)OCP(=O)(O)O)c(=O)n1 [cidofovir]							> 1	180 µM	SI50 ([1]; HSV-1, HFF cells): > 1; EC50 [1]: 180 µM; EC50 (vaccinia virus (VV)): 6.07 µM; CC50 [4]: > 200 µM
O=C(NC1C=CC(O)C1)c1ccc2ccccc2n1 (stereo not drawn) [Compound 13d, N-(4-Hydroxycyclopent-2-enyl)quinoline-2-carboxamide]	> 100 µg/mL	89 to 90 °C	> 100 µg/mL	> 100 µg/mL	> 100 µg/mL				
O=C(NC1C=CC(O)CC1)c1ccc2ccccc2n1 (stereo not drawn) [Compound 14d, N-(4-Hydroxycyclohex-2-enyl)quinoline-2-carboxamide]		80 to 84 °C	54 µg/mL (≈ 201 µM)		37 µg/mL (≈ 138 µM)	> 20 µM	1	> 20 µM	SI50 (influenza A H1N1 virus [6]; influenza A H1N1, MDCK cells, neutral red): 1.4; SI50 (influenza A H1N1 virus [9]; influenza A H1N1, MDCK cells, visual): >2.7
O=C(NC1C=CC(O)CC1)c1cccnc1 (stereo not drawn) [Compound 14b, N-(4-Hydroxycyclohex-2-enyl)nicotinamide]	> 100 µg/mL	95 to 99 °C	> 100 µg/mL	> 100 µg/mL	> 100 µg/mL	> 20 µM	1	> 20 µM	
Nc1ccn([C@@H]2CS[C@H](CO)O2)c(=O)n1 [Compound 3TC, 3TC, reference compound]									EC50 (hepatitis B virus (HBV); HBV strain ayw1, drug concentration range 0.063–20 μM, 3TC control range 0.00032–0.1 μM, read-out: EC50): 0.01 µM
O=C(NC1C=CC(O)C1)c1ccccn1 (stereo not drawn) [Compound 13a, N-(4-Hydroxycyclopent-2-enyl)picolinamide]	> 100 µg/mL		> 100 µg/mL	> 100 µg/mL	> 100 µg/mL				
O=C(NC1C=CC(O)CC1)c1ccncc1 (stereo not drawn) [Compound 14c, N-(4-Hydroxycyclohex-2-enyl)isonicotinamide]	> 100 µg/mL	245 to 250 °C (dec.)	> 100 µg/mL	> 100 µg/mL	> 100 µg/mL	> 100 µM	1	9.64 µM	

Source: paper PMC4293787 (The Scientific World Journal, 2014)
